How the values were obtained:
[1] = tested on: chromatin accessibility at RAR/RXR binding sites; conditions: hypoxia; 5 mM acetate
Protocol: ATAC-seq. ATAC-seq was performed and analyzed as previously described (n=2). […] -O 5 -m 30 -q 15. Bowtie 2 version 2.3.1 was used to align trimmed reads to hg19 with flags -q -phred33-X 2000 -fr -p 8 -x hg19, followed by samtools sort command. Duplicates were marked with Picard-tools version 1.83, then samtools view with flags -b -f 1 -F12 -L were used to filter mitochondria mapping reads with a bed file containing all chromosomes except chrM. Filtered mapping files are transferred into coverage bigwig file using deeptools with default bin size (10 bps). SPP/phantom was run to obtain the fragment length with maximum Strand cross-correlation. MACS2 callpeak function was then performed with flags -q 0.05 -nomodel-extsize=½ fragment length obtained from SPP. Associate p-values for each peak is generated and extracted from MACS2 output. Ranked gene lists were created from the RNA-Seq and ATAC-Seq datasets following differential testing. Gene set enrichment analysis were performed using the GSEA with the C2 (CP:REACTOME) MSigDB v6.2.

[2] = tested on: CHP134 cells; test: qPCR for SNCG and NGFR expression, CHP134; format: cell-based; conditions: hypoxia, 16 h
Protocol: (§1) RNA Isolation, Reverse Transcription, and Real-Time PCR. Total RNA was isolated from tissue culture plates according to the TRIzol Reagent (Invitrogen) protocol. 3 μg of total RNA was used in the reverse transcription reaction using the iScript cDNA synthesis kit (Bio-Rad). Quantitative PCR amplification was performed on the Prism 7900 Sequence Detection System (Applied Biosystems) using Taqman Gene Expression Assays (Applied Biosystems). Gene expression data were normalized to 18S rRNA.

[3] = tested on: CHP134 cells; conditions: hypoxia vs normoxia; U-13C-acetate 3 h
Protocol: Metabolic tracing study. For glucose isotope tracing, CHP134 cells were pretreated under normoxia or hypoxia for 16 h (n=3). Then the medium was changed to DMEM:F12 with 3.15 g/L ^13C6-glucose with 10% dialyzed FBS for 3 h. For acetate isotope tracing, the procedure was same as glucose tracing except that the complete DMEM:F12 medium was supplemented with 2 mM ^13C2-acetate.
Liquid chromatography-mass spectrometry analysis. For the metabolic tracing study, cells were washed with cold PBS, lysed in 80% Ultra LC-MS acetonitrile on ice for 15 min, centrifuged for 10 min at 20,000×g, and supernatant was subjected to mass spectrometry analysis. Liquid chromatography was performed using an Agilent 1290 Infinity LC system (Agilent, Santa Clara, US) coupled to a Q-TOF 6545 mass spectrometer (Agilent, Santa Clara, US). A hydrophilic interaction chromatography method (HILIC) with a BEH amide column (100 ×2.1 mm i.d., 1.7 μm; Waters) was used for compound separation at 35° C. with a flow rate of 0.3 ml/min. The mobile phase A consisted of 25 mM ammonium acetate and 25 mM ammonium hydroxide in water and mobile phase B was acetonitrile. The gradient elution was 0-1 min, 85 % B; 1-12 min, 85% B→65% B; 12-12.2 min, 65% B→40% B; 12.2-15 min, 40% B. After the gradient, the column was re-equilibrated at 85% B for 5 min. The overall runtime was 20 min, and the injection volume was 5 μL. […]

[4] = tested on: SMS-KCNR cells; test: qPCR for SNCG and NGFR expression, SMS-KCNR; format: cell-based; conditions: hypoxia; 10 μM RA combined with 5 mM acetate or 2 mM GTA, 16 h
Protocol: as §1

[5] = tested on: acetylation on H3K9, H3K27, and total H3; test: Immunoblots of histone acetylation; format: cell-based; conditions: hypoxia, CHP134; for acetylation on H3K9, H3K27, and total H3: 5 mM acetate, 0.5 mM or 2 mM GTA
Protocol: (§2) Protein isolation and western blot. Cells were washed with PBS buffer and lysed with Harvest lysis buffer supplemented with Halt inhibitors for 5-10 min. Cell lysate was centrifuged at 5000 rpm for 5 min at 4° C. The supernatant containing cytosolic proteins was transferred to a new EP tube. The insoluble part contains nuclear proteins and was further lysed with nuclear lysis buffer for 5 min at 4° C. Then the lysate was sonicated in water-bath at 4° C. for 6 cycles (1 cycle=30 s sonication and 30 s cooldown). After sonication, the cell lysate was centrifuged at 15000 rpm for 10 min. Protein concentration was determined by BOA assay. 1 μg nuclear proteins or 1 μg cytosolic proteins were boiled in loading buffer with reducing reagents, then separated with SDS-PAGE. Protein were transferred onto a nitrocellulose membrane. After blocking in 5% non-fat milk for 1 hour, the first antibody was applied. After 3×TBST washes, HRP-conjugated secondary antibodies were applied. Signals were detected with an ECL kit. The complete antibody list is in table 1.

[6] = Acetate measurement in plasma; format: in vivo, NSG mice; conditions: oral GTA, 5% in drinking water; p-value not significant
Protocol: For acetate measurement, 10 ul of serum was mixed with 10 ul of 50 uM ^13C2-acetate. Then, the mixture was precipitated by the addition of 80 ul acetonitrile and centrifuged for 10 min at 20,000×g. 80 ul supernatant was transferred to a new tube and derivertized according to the published protocol. 2 ul sample was subjected to mass spectrometry analysis using Agilent 1290 coupled to Q-TOF 6545. […] The mobile phase were 5 mM ammonium formate and 0.1% formic acid in water (A) and 90% acetonitrile (B). […] Agilent Q-TOF was operated in positive mode with ion spray voltage at 3500 V. The ratio of acetate to ^13C2-acetate was calculated using Agilent Profinder software B.08.00.
Mouse xenograft model. In viva studies were performed in accordance with protocols approved by the Institutional Animal Care and Use Committee at Stanford University and in compliance with all regulatory standards, 6 to 8-week-old male NSG mice were provided by Dr. Erinn Rankin. 2×10^6 CHP134 cells suspended in […] of RPMI-1640 with 50% Matrigel (BD Biosciences) were implanted subcutaneously into the dorsal flank of the mice. Tumor growth was recorded using digital caliper every other day, and tumor volumes were estimated using the formula: (L×W^2)/2, where L=length and W=width of tumor. The animals were randomized into 4 groups (Control, RA, GTA and GTA+RA) when the tumor volumes reached approximately 150 mm^3. […]

[7] = infants with Canavan disease; high dose; cited from earlier work
[8] = tested on: CHP134 cells; test: Neurite outgrowth assay, CHP134; format: cell-based
Protocol: (§3) Neurite outgrowth assay. For the differentiation of neuroblastoma cells, 1×10^5 CHP134 or SMS-KNCR cells were plated in 6 well-plate. After overnight incubation, cells in hypoxia treatment group were pre-incubated in 0.5% 02 hypoxia chamber for 6 h. Then RA was added to reach a final concentration of 10 μM. After 48 h treatment, images were taken through an Olympus phase contrast microscope (×20 magnification). The lengths of the neurites were traced and quantified using the ImageJ plugin NeuronJ. Within each sample, total neurite length was measured and normalized by the number of cell bodies, mean value from biological triplicates was reported.

[9] = tested on: SMS-KCNR cells; test: Neurite outgrowth assay, SMS-KCNR; format: cell-based; conditions: 48 h
Protocol: as §3

[10] = tested on: CHP134 cells; test: RNA-Seq pathway analysis of RA-upregulated genes; format: cell-based; conditions: 24 h RA vs DMSO
Protocol: RNA Sequencing. The total RNA from four treatment groups (Nor_Ctrl, Nor_RA, Hyp_Ctrl and Hyp_RA, 3 replicates) was extracted using Trizol reagent according to the manufacturer's instructions (n=3). The RNA-seq library was constructed and subjected to 150 bp paired-end sequencing on an Illumina sequencing platform (Novogene). RNA-seq analysis was performed using the kallisto and sleuth analytical pipeline. In brief, a transcript index was generated with reference to Ensembl version 57 for hg19. Paired-end mRNA-seq reads were pseudo-aligned using kallisto (v0.42.4) with respect to this transcript index using 100 bootstraps (-b 100) to estimate the variance of estimated transcript abundances. Transcript-level estimates were aggregated to transcripts per million (TPM) estimates for each gene, with gene names assigned from Ensembl using biomaRt. Differential gene expression analysis was performed using the sleuth R package across pairwise groups (normoxia DMSO vs. normoxia RA, normoxia DMSO vs. hypoxia DMSO, normoxia RA vs. hypoxia RA) using Wald tests, with significant hits called with a sleuth q-vaulue<0.05 and fold change estimate b>abS(In(2)).

[11] = tested on: CHP134 cells; test: Immunofluorescence staining of β-tubulin III / MAP2; format: cell-based; conditions: 10 μM RA, 72 h
Protocol: Immunofluorescence staining. […] cells were seeded into 8-champer slides with a density of 6000 cells/well and incubated with indicated treatment for 3 days. Cells were fixed with 4% PFA in 0.1% PBS-tween at room temperature for 30 min followed by permeabilization with 0.1% Triton X-100 in PBS at room temperature for 10 min. The cells were washed with PBS twice and blocked with 2.5% horse serum at room temperature for 1 hour. Then, cells were subjected to immunofluorescence staining with primary antibody overnight at 4° C. After twice washes with PBS, cells were incubated with Alexa Fluor 594-labeled anti-rabbit secondary antibody (Life Technologies) at room temperature for 1 hour followed by staining with DAP for 20 min. Images were acquired with Leica DMi8 microscope.

[12] = tested on: CHP134 mice xenografts; test: Mouse xenograft model; format: in vivo; conditions: 10 mg/kg RA i.p. daily; after 23 days' treatment
Protocol: Mouse xenograft model. […] Tumor growth was recorded using digital caliper every other day, and tumor volumes were estimated using the formula: (L×W^2)/2, where L=length and W=width of tumor. The animals were randomized into 4 groups (Control, RA, GTA and GTA+RA) when the tumor volumes reached approximately 150 mm^3. 10 mg/kg RA or DMSO vehicle was injected intraperitoneally daily for 3 weeks. Mice received GTA in the drinking water (5% by weight).

[13] = Pharmacokinetics of RA in NSG mice; format: in vivo
Protocol: For 13-cis-retinoic acid measurement, serum samples were collected at 0.5 h, 1 h, 2 h and 6 h after RA injection (10 mg/kg, i.p.). 10 ul serum was mixed with 90 ul extraction buffer (ethyl acetate:n-hexane:IPA, 30:60:10). After 20 min on a shaker at 120 rpm, the mixture was centrifuged at 5000 g for 5 min. The organic layer was collected into a new tube and dried using speed vacuum. The residue was reconstituted with 100 ul of 5 mM ammonium formate in water/acetonitrile (1:1). 5 ul sample was subjected to mass spectrometry analysis using Agilent 1290 coupled to QQQ 6470. […] The mobile phase was 5 mM ammonium formate and 0.1% formic acid in water (A) and 90% acetonitrile (B). […] Agilent QQQ 6470 was operated in positive mode with ion spray voltage at 3000 V. The MRM transitions were 301.2→159.1/205.1. Data was processed by Agilent MassHunter Quantitative Analysis for QQQ B.07.01. (Agilent Technologies)

[14] = tested on: tri-methylation on H3K9, H3K27; test: Immunoblots of histone methylation; format: cell-based; conditions: hypoxia; CHP134; 1 mM or 5 mM DMKG
Protocol: as §2

[15] = 10 μM RA combined with 5 mM acetate or 2 mM GTA

Compound: CC(=O)[O-].[Na+] [acetate, Sodium acetate]
- chromatin accessibility [1]: partially restored chromatin accessibility
- chromatin accessibility of genes with RAR/RXR binding sites [1]: increased chromatin accessibility
- expression of NGFR and SNCG [2, 15]: significantly restored the expression of NGFR and SNCG
- cellular acetyl-CoA production (13C labeled acetyl-CoA[M+2]) [3]: promote cellular acetyl-CoA production
- expression of NGFR and SNCG [4]: significantly restored the expression of NGFR and SNCG
- acetylation on H3K9, H3K27, and total H3 [5]: restored acetylation on H3K9, H3K27, and total H3

Compound: CC(=O)OCC(COC(C)=O)OC(C)=O [GTA, glycerol triacetate]
- plasma acetate concentration vs control group [6]: slight increase of plasma acetate concentration
- toxicity [7]: no detectable toxicity
- differentiative activity as a single agent ([8]; GTA alone): little to no differentiative activity
- RA-induced neuron-like morphological changes ([8]; hypoxia, 10 μM RA plus 2 mM GTA, 48 h): restored the RA-induced neuron-like morphological changes
- expression of NGFR and SNCG [2, 15]: significantly restored the expression of NGFR and SNCG
- RA-induced neuron-like morphological changes ([9]; hypoxia, 10 μM RA plus 2 mM GTA): restored the RA-induced neuron-like morphological changes
- expression of NGFR and SNCG [4]: significantly restored the expression of NGFR and SNCG
- acetylation on H3K9, H3K27, and total H3 [5]: restored acetylation on H3K9, H3K27, and total H3

Compound: CC1=C(/C=C/C(C)=C/C=C/C(C)=C\C(=O)O)C(C)(C)CCC1 [RA, 13-cis-retinoic acid]
- pathway analysis of RA-upregulated genes [10]: enrichment of NGF signaling, transmission across of chemical synapses and neuronal system genes
- neurite outgrowth and differentiation morphology ([8]; 10 μM RA, 48 h, hypoxia (0.5% O2) vs normoxia): partially diminished nerite outgrowth and the differentiation morphology
- cell morphological changes / neurite outgrowth ([8]; 10 μM RA, 48 h, normoxia (21% O2)): induced obvious cell morphological changes to a mature neuronal-like phenotype characterized by neurite outgrowth
- neurite outgrowth and differentiation morphology ([9]; 10 μM RA, hypoxia (0.5% O2) vs normoxia): partially diminished nerite outgrowth and the differentiation morphology
- cell morphological changes / neurite outgrowth ([9]; 10 μM RA, normoxia (21% O2)): induced obvious cell morphological changes to a mature neuronal-like phenotype characterized by neurite outgrowth
- β-tubulin III/MAP2 positive neurites ([11]; hypoxia vs normoxia): partially suppressed
- β-tubulin III/MAP2 positive neurites ([11]; normoxia): increased β-tubulin III/MAP2 positive neurites
- anti-tumor effect (tumor volume, tumor weight) [12]: didn't show anti-tumor effect
- half-life of RA ([13]; 10 mg/kg i.p.): relative short half-life
- time blood RA concentration maintained above 10 uM ([13]; 10 mg/kg i.p.): around 2 h
- blood RA concentration ([13]; 10 mg/kg i.p., at 6 h after injection): reduced to the basal level
- blood RA concentration ([13]; 10 mg/kg i.p., maintained for around 2 h): above 10 uM
- time of peak blood RA concentration ([13]; 10 mg/kg, after i.p. injection): 30 min

Compound: COC(=O)CCC(=O)C(=O)OC [DMKG, Dimethyl-α-ketoglutarate]
- expression of NGFR and SNCG ([2]; 10 μM RA combined with 5 mM DMKG): did not restore the expression of NGFR and SNCG
- histone hypermethylation [14]: reduced histone hypermethylation
- histone acetylation ([5]; 1 mM or 5 mM DMKG): did not significantly increase histone acetylation

Source: patent publication US11684601B2, “Treatment of cancer with combinations of agents” (The Board of Trustees of the Leland Stanford Junior …, priority 2019, dated 2023)
